Results published in patent US10829473B2, “Modulators of the cystic fibrosis transmembrane conductance regulator protein and methods of use” (AbbVie Overseas S.Á.R.L., priority 2017, dated 2020).
Like-named read-outs stand apart in the source and are kept apart here. Marks after values point to notes of the source that are not given here.

Target: T1, F508delCFTR (Homo sapiens, UniProt P13569, DEL508-508)
T1 construct: expressed in transfected cells; host or cells: CFBE41o- human lung derived epithelial cells (CFBE41o-F508delCFTR-HRP), doxycycline-inducible
T1 sequence (P13569 with tags, fused parts or gaps DEL508-508): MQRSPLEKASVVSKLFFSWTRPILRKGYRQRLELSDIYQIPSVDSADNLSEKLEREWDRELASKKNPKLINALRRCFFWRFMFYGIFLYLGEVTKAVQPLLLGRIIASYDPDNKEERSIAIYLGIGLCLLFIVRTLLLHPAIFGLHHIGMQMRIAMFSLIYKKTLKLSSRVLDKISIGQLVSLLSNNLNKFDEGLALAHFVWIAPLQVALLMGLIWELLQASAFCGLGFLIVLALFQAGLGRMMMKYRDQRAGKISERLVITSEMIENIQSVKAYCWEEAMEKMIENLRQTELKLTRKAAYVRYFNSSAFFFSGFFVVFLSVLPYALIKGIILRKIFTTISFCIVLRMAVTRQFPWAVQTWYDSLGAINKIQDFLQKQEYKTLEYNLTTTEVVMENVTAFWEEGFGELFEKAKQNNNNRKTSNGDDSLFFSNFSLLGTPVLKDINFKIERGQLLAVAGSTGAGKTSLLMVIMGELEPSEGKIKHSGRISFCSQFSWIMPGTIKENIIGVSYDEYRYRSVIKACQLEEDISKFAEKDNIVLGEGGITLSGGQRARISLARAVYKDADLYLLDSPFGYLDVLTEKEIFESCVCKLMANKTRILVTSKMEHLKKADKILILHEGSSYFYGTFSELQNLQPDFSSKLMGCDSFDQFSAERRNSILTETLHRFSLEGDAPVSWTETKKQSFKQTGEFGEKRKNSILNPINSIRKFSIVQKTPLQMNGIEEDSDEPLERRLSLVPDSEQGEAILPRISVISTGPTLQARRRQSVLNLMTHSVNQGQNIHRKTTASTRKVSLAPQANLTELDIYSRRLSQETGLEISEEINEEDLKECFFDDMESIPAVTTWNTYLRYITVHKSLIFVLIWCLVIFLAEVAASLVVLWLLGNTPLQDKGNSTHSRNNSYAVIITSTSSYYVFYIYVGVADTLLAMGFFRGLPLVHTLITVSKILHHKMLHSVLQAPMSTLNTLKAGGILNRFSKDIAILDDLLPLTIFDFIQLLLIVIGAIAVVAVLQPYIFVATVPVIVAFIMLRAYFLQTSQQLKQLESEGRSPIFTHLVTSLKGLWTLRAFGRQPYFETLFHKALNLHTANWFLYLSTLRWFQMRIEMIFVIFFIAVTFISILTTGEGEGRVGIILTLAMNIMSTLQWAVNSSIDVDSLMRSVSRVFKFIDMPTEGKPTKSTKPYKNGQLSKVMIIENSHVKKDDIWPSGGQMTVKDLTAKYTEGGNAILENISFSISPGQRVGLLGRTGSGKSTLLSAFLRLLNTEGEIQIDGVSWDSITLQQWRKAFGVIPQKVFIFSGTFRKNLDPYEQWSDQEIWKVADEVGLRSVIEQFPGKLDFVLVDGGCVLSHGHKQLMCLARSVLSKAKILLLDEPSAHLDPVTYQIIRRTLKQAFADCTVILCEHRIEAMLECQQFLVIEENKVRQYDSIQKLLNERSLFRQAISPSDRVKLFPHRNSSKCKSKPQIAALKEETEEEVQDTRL
Assay: Cell Surface Expression-Horse Radish Peroxidase (CSE-HRP) Assay;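 for EC50 (with co-corrector): co-corrector chromenyl benzoic acid corrector at 2 or 3 µM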;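 for Maximum % activity (without co-corrector): % of on-plate positive control chromenyl benzoic acid corrector at 2 or 3 µM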
Assay type: cell-based
Details: for Maximum % activity (with co-corrector) / Emax: maximum at any tested concentration; for Emax: read-out: Maximum % activity (without co-corrector)
Summary of the method: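 Corrector compounds were given as 8-point 3-fold series from 20 or 30 μM, with or without a 2 μM co-corrector, for 18-24 h at 33 °C. Surface HRP was read by luminol luminescence as % of positive control; variable-Hill-slope sigmoidal fitting gave EC50 from triplicate plates.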

[1] = test compound alone, without co-corrector, read-out: EC50 (without co-corrector)
[2] = with co-corrector, read-out: EC50 (with co-corrector)
[3] = test compound with co-corrector
[4] = test compound without co-corrector
[5] = test compound with co-corrector, read-out: EC50 (with co-corrector)
[6] = test compound without co-corrector, read-out: EC50 (without co-corrector)

EC50 [1]	Maximum % activity (with co-corrector) (with co-corrector)	EC50 [2]	Emax (without co-corrector)	EC50 (with co-corrector) [3]	Maximum % activity (with co-corrector) [3]	EC50 (without co-corrector) [4]	Emax [4]	EC50 [5]	EC50 [6]	SMILES
< 3 µM	+++ (≥350)	< 3 µM	> 150%	–	–	–	–	–	–	COc1ncc(C2CCC2)cc1C1(C(=O)NS(=O)(=O)c2cccc3[nH]ccc23)CC1 [Example I-21, 1-(5-cyclobutyl-2-methoxypyridin-3-yl)-N-(1H-indole-4-sulfonyl)cyclopropane-1-carboxamide]
–	–	–	–	++^a	++ (≥150 and <350)	++^a	50 to 150%	–	–	O=C(NS(=O)(=O)c1cccc2ncccc12)C1(c2cc(C3CC3)cnc2C(F)(F)F)CC1 [GIII-10]
3 to 10 µM	+++ (≥350)	3 to 10 µM	> 150%	–	–	–	–	–	–	COc1ncc(C)cc1C1(C(=O)NS(=O)(=O)c2cccc3c2CCCN3)CC1 [II-10]
3 to 10 µM	+++ (≥350)	< 3 µM	> 150%	–	–	–	–	–	–	COc1ccc(OC(F)F)cc1C1(C(=O)NS(=O)(=O)c2cccc3ncccc23)CC1 [Example I-65, 1-[5-(difluoromethoxy)-2-methoxyphenyl]-N-(quinoline-5-sulfonyl)cyclopropane-1-carboxamide]
–	–	–	–	–	+++ (≥350)	–	> 150%	3 to 10 µM	3 to 10 µM	COc1cc(OC(C)C)c(C2(C(=O)NS(=O)(=O)c3cccc4[nH]ccc34)CC2)cn1 [GIII-3]
> 10 µM	+ (<150)	> 10 µM	< 50%	–	–	–	–	–	–	CCOc1ccc2nc(S(=O)(=O)NC(=O)C3(c4cccc(Cl)c4)CC3)sc2c1 [Example III-56, 1-(3-chlorophenyl)-N-(6-ethoxy-1,3-benzothiazole-2-sulfonyl)cyclopropane-1-carboxamide]
–	–	–	–	–	+++ (≥350)	–	> 150%	3 to 10 µM	3 to 10 µM	Cc1cnc(N2CCCC2)c(C2(C(=O)NS(=O)(=O)c3cccc4[nH]ccc34)CC2)c1 [GII-37, N-(1H-indole-4-sulfonyl)-1-[5-methyl-2-(pyrrolidin-1-yl)pyridin-3-yl]cyclopropane-1-carboxamide]
< 3 µM	+++ (≥350)	< 3 µM	> 150%	–	–	–	–	–	–	O=C(NS(=O)(=O)c1cccc2ncccc12)C1(c2cc(OC(F)(F)F)ccc2Cl)CC1 [II-24]
> 10 µM	+ (<150)	> 10 µM	< 50%	–	–	–	–	–	–	CCCS(=O)(=O)NC(=O)C1(c2cccc(OC)c2)CCOCC1 [Example III-119, 4-(3-methoxyphenyl)-N-(propane-1-sulfonyl)oxane-4-carboxamide]
< 3 µM	+++ (≥350)	< 3 µM	> 150%	–	–	–	–	–	–	COc1ncc(C2CCC2)cc1C1(C(=O)NS(=O)(=O)c2cccc3cnn(C)c23)CC1 [II-13]
–	–	–	–	–	+++ (≥350)	–	> 150%	3 to 10 µM	3 to 10 µM	CCc1cnc(N2CCCC2)c(C2(C(=O)NS(=O)(=O)c3cccc4nc(C)ccc34)CC2)c1 [GII-31, 1-[5-ethyl-2-(pyrrolidin-1-yl)pyridin-3-yl]-N-(2-methylquinoline-5-sulfonyl)cyclopropane-1-carboxamide]
< 3 µM	+++ (≥350)	< 3 µM	> 150%	–	–	–	–	–	–	COc1ccc(C2CCC2)cc1C1(C(=O)NS(=O)(=O)c2cccc3[nH]ccc23)CC1 [Example I-55, 1-(5-cyclobutyl-2-methoxyphenyl)-N-(1H-indole-4-sulfonyl)cyclopropane-1-carboxamide]
–	–	–	–	++^a	++ (≥150 and <350)	++^a	50 to 150%	–	–	CCc1cnc(N2CCOCC2)c(C2(C(=O)NS(=O)(=O)c3cccc4nc(C)ccc34)CC2)c1 [GII-32, 1-[5-ethyl-2-(morpholin-4-yl)pyridin-3-yl]-N-(2-methylquinoline-5-sulfonyl)cyclopropane-1-carboxamide]
3 to 10 µM	+++ (≥350)	< 3 µM	> 150%	–	–	–	–	–	–	COc1cccc(C)c1C1(C(=O)NS(=O)(=O)c2cccc3c2CCCN3)CC1 [II-53]
–	–	–	–	–	+ (<150)	–	< 50%	> 10 µM	> 10 µM	O=C(NS(=O)(=O)c1cccc2ncccc12)C1(c2cc(Cl)cnc2F)CC1 [GIII-34]
< 3 µM	+++ (≥350)	< 3 µM	> 150%	–	–	–	–	–	–	Cc1ccc(OC(F)F)c(C2(C(=O)NS(=O)(=O)c3cccc4nc(C)ccc34)CC2)c1 [II-101]
< 3 µM	++ (≥150 and <350)	< 3 µM	50 to 150%	–	–	–	–	–	–	COc1ccc(C)nc1C1(C(=O)NS(=O)(=O)c2cccc3nc(C)ccc23)CC1 [Example III-126, 1-(3-methoxy-6-methylpyridin-2-yl)-N-(2-methylquinoline-5-sulfonyl)cyclopropane-1-carboxamide]
–	–	–	–	–	+++ (≥350)	–	> 150%	< 3 µM	3 to 10 µM	CC(C)Oc1ncc(N2CCC2)cc1C1(C(=O)NS(=O)(=O)c2cccc3ncccc23)CC1 [Example GI-83, 1-{5-(azetidin-1-yl)-2-[(propan-2-yl)oxy]pyridin-3-yl}-N-(quinoline-5-sulfonyl)cyclopropane-1-carboxamide]
< 3 µM	+++ (≥350)	< 3 µM	> 150%	–	–	–	–	–	–	CCc1ccc(OC)c(C2(C(=O)NS(=O)(=O)c3cccc4nc(N)ccc34)CC2)c1 [II-71]
–	–	–	–	–	+++ (≥350)	–	> 150%	< 3 µM	3 to 10 µM	CC(C)Oc1ncc(N2CCC2)cc1C1(C(=O)NS(=O)(=O)c2cccc3[nH]ccc23)CC1 [Example GI-85, 1-{5-(azetidin-1-yl)-2-[(propan-2-yl)oxy]pyridin-3-yl}-N-(1H-indole-4-sulfonyl)cyclopropane-1-carboxamide]
> 10 µM	+ (<150)	> 10 µM	< 50%	–	–	–	–	–	–	CC(C)(C)OC(=O)N1CCC(S(=O)(=O)NC(=O)C2(c3ccc(Cl)cc3Cl)CC2)CC1 [Example III-80, tert-butyl 4-{[1-(2,4-dichlorophenyl)cyclopropane-1-carbonyl]sulfamoyl}piperidine-1-carboxylate]
–	–	–	–	–	+++ (≥350)	–	> 150%	< 3 µM	< 3 µM	COCC1(c2cnc(OC(C)C)c(C3(C(=O)NS(=O)(=O)c4cccc5ccccc45)CC3)c2)CC1 [Example GI-119, 1-{5-[1-(methoxymethyl)cyclopropyl]-2-[(propan-2-yl)oxy]pyridin-3-yl}-N-(naphthalene-1-sulfonyl)cyclopropane-1-carboxamide]
3 to 10 µM	+++ (≥350)	< 3 µM	> 150%	–	–	–	–	–	–	Cc1ccc2c(S(=O)(=O)NC(=O)C3(c4cc(C(F)(F)F)cnc4N(C)C)CC3)cccc2n1 [Example I-72, 1-[2-(dimethylamino)-5-(trifluoromethyl)pyridin-3-yl]-N-(2-methylquinoline-5-sulfonyl)cyclopropane-1-carboxamide]
